We go through two compounds from patent publication US20030186888A1, “Diastereo analog of peptide SPFK-amide with selective anti-microbial activity and a method thereof” (priority 2002, published 2003).

Entries after “also recorded” stand apart in the source; their conditions may differ. Square brackets hold non-standard residues; d marks the D form. Peptide text beside a SMILES is read from it.

Holding throughout (assay type): cell-based
The subject of one data set is rat erythrocytes. On the procedure: In further embodiment of the present invention, hemolytic activity of the peptides was assessed on freshly isolated rat erythrocytes. Heparinized rat blood in saline was initially centrifuged at 1000×g for 10 min to remove the buffy coat. The erythrocyte suspension was further washed thrice with 5 mM Hepes, pH 7.4 containing 150 mM NaCl. Aliquots of cell suspension ( 10^6 cells) in eppendorf tubes were incubated with the peptide in […]° C. for 30 min with gentle mixing. The tubes were then centrifuged and the absorbance of the supernatants was measured at 540 nm. The lysis obtained with 1% triton X 100 was taken as 100%. FIG. 5. Hemolysis of rat erythrocytes as a function of peptide concentration concentration Erythrocytes (-10^6/ml) were incubated in Hepes buffered isotonic saline containing various concentrations of SPFK analogs. SPFK (A). Other symbols same as that in FIG. 1.

For the next data set, the system named is microorganisms tested. Kind of data set: Antimicrobial activity (growth inhibition, MIC). The conditions noted are these: growth of the microorganisms tested. The method, then:
(§1) In further embodiment of the present invention, for determining antimicrobial activity, antimicrobial activity was assayed as follows: Different concentrations of peptides were added to 1 ml of synthetic medium [KH2PO4, 10.5 g; K2HPC>4, 4.5 g; (NH4)2SO4, 1 g; MgSO4, 0.1 g; L-arginine, 0.1 g and glucose 1% for one litre of medium] for E. coli or nutrient broth for other microorganisms, containing an inocula of the test organism adjusted to ˜10^6 CFU/ml. Microbial growth was determined by monitoring the increase in ODeoo after incubating under aerobic conditions at 37° C. for 6-8 h (30° C. for P. aeruginosa). The bactericidal activity of the peptides was determined by plating suitably diluted cultures after incubation with the peptides on nutrient agar plates. The plates were incubated at 37° C. for 18 h for colony counting. Outer membrane permeabilization assays were done by fluorescent monitoring of uptake of N-phenyl-1-N-naphthyl amine (NPN) (26). […] The excitation monochromator was set at 350 nm and emission at 420 nm was continuously monitored after addition of the peptide from an aqueous stock solution. […] Inner membrane permeability of E. coli W 160.37 was monitored by measuring the p-galactosidase activity in preinduced cells (with 5×10′^4 M IPTG), in the presence of different concentration of the peptide using 0-nitro phenyl-3-D-galactoside (ONPG)(27).

A further data set concerns E. coli. Put plainly: Bactericidal activity by plating and colony counting. The conditions noted are these: on E. coli. On the procedure:
as §1

`CC[C@H](C)[C@H](NC(=O)[C@H](Cc1c[nH]c2ccccc12)NC(=O)[C@H](CCCCN)NC(=O)[C@H](CO)NC(=O)[C@@H](CC(C)C)NC(=O)[C@H](Cc1ccccc1)NC(=O)[C@@H](NC(=O)[C@H](CCCCN)NC(=O)[C@@H](CC(C)C)NC(=O)[C@H](CC(C)C)NC(=O)[C@H](CCCCN)NC(=O)[C@@H]1CCCN1)[C@@H](C)O)C(=O)NCC(=O)O` [DSac] (H-PKL[dL]KTF[dL]SKWIG-OH): in the data set on rat erythrocytes, the “hemolytic activity (in words)” value was “very little hemolytic activity”.
Consider `CC[C@H](C)[C@H](NC(=O)[C@H](Cc1c[nH]c2ccccc12)NC(=O)[C@H](CCCCN)NC(=O)[C@H](CO)NC(=O)[C@@H](CC(C)C)NC(=O)[C@H](Cc1ccccc1)NC(=O)[C@@H](NC(=O)[C@H](CCCCN)NC(=O)[C@@H](CC(C)C)NC(=O)[C@H](CC(C)C)NC(=O)[C@H](CCCCN)NC(=O)[C@@H]1CCCN1)[C@@H](C)O)C(=O)NCC(N)=O` [DSam] (H-PKL[dL]KTF[dL]SKWIG-NH2; N-terminus assumed), for which the “antimicrobial activity / MIC (in words)” value with microorganisms tested is “exhibits activity with MIC's comparable to that of SPFK and its retro isomers; also recorded: MICs comparable to that of SPFK and the retro analogs”. In the data set with E. coli, this compound yielded a bactericidal concentration of more than 50 µg/mL and a bacteriostatic concentration of 30 µg/L.
